From patent US8524691B2, “Phosphonated rifamycins and uses thereof for the prevention and treatment of bone and joint infections” (The Medicines Company, priority 2008, dated 2013)
Values after ≈ are worked out from the molar mass of the structure shown. Read-outs that look alike come from different tables or passages of the source.

Columns and labels:
[1] = tested on: S. aureus ATCC 13709^A, Novobiocin and Rifampicin resistant variant; assay: Antibacterial susceptibility (MIC), NCCLS broth microdilution; assay type: cell-based
Protocol: (§1) Susceptibility of S. aureus strains to the known antibiotics and synthesized compounds was determined by following the guidelines set by NCCLS (M26-A). Compounds were diluted two-fold serially in DMSO and transferred to cation-adjusted Mueller Hinton broth (CAMHB; Becton Dickinson). 50 μL of compounds diluted in CAMHB was mixed with 100 μL of bacteria diluted in CAMHB in 96-well microtiter plates. The final concentration of micro-organisms in the assay was 5×10^5c.f.u. per mL and the final concentration of DMSO in the assay was 1.25%. Assays were set up in duplicate and incubated at 37° C. for 18 h. The lowest concentration of compound that inhibited visible growth was reported as the minimum inhibitory concentration (MIC).

S. aureus ATCC 29213 = assay: as above; assay type: cell-based; conditions: for Minimum inhibitory concentration, S. aureus ATCC 29213: CAMHB, 37° C., 18 h
Protocol: as §1

S. aureus ATCC 13709 [2] = assay: microbe, parasite or virus in culture; assay type: cell-based; conditions: for Minimum inhibitory concentration, S. aureus ATCC 13709: CAMHB, 37° C., 18 h; for Antibacterial activity (in words, from Table 1): S. aureus MIC
Protocol: as §1

S. aureus ATCC 13709 [3] = assay: microbe, parasite or virus in culture; assay type: cell-based; conditions: for Serum dependence of antibacterial activity (in words): MIC with versus without serum; for MIC: Staphylococcus aureus, ATCC13709, 18 h
Protocol: as §1
Susceptibility testing experiments were also carried out in the presence of serum. These experiments were carried out similar to the susceptibility testing with the following modifications. 75 μL of compounds diluted in CAMHB was mixed with 75 μL of bacteria diluted in 100% serum from any given source (commercial pooled mouse serum (MS) and human serum (HS), Equitech-Bio Inc.) or diluted in 8% purified human serum albumin (HSA) (Calbiochem). The final concentration of animal serum in the assay was 50% and the final concentration of purified human serum albumin in the assay was 4%; the concentrations of all other components were identical to those described for susceptibility testing.

[4] = assay type: in vitro ADME; conditions: for % Conversion (prodrug converted to parent drug after binding to bone): 24 h incubation, 37° C.
Protocol: Amounts of parent drug “regenerated” from the phosphonated prodrug were measured as follows. Washed bone powder-bound prodrugs from the above experiment were resuspended in 400 μL PBS+2% DMSO or in 400 μL 50% (v/v in PBS+2% DMSO) human or rat serum. The suspension was incubated overnight at 37° C., centrifuged at 13,000 rpm for 2 min and the supernatant was recovered. The amount of regenerated parent drug in the supernatant was determined by measurements using the microbiological assay that was previously described for the prodrugs themselves. The amount of prodrug was deduced from standard curves of known amounts of parent drug that were used as reference for each experiment. The amount of regenerated drug assessed by this bioassay was corroborated by MIC determination. The percentage of drug regenerated in PBS or serum after the overnight incubation (Table 2) was deduced from the difference between the amount of bound prodrug and the amount of regenerated drug (not shown).

[5] = tested on: Novobiocin resistant mutant strain of S. aureus ATCC 13709; assay: Prophylactic efficacy in rat model of S. aureus bone infection; assay type: in vivo; conditions: for Measured bacterial titer, test compound: 20 mg/kg parent drug equivalent, tibia 24 h postinfection
Protocol: To determine the in vivo activity of bisphosphonated prodrugs of Rifamycin derived antibacterials in comparison to their non-bisphosphonated parents, compounds 18, 19, 48a, 59, 66, 89, 95, 102, 110, 142b and 164 and their parent drug rifabutin were used as prophylactic therapeutics in an animal model of infection. Specifically, a spontaneous Novobiocin resistant mutant strain of S. aureus ATCC 13709 (a clinical osteomyelitis isolate), was grown overnight at 37° C. in brain heart infusion broth (BHIB). After 16 h of growth, cells were subcultured into fresh BHIB and incubated for 4 to 5 h at 37° C. The cells were washed twice with phosphate-buffered saline (PBS) and resuspended in BHIB supplemented with 10% (vol./vol.) fetal bovine serum at a density of approximately 10^10 colony forming units (CFU)/ml (based upon turbidimetry). The suspension was aliquoted and a portion was used to check the CFU count. The culture was stored frozen (−80° C.) and was used without subculture. For use as an inoculum the culture was thawed, diluted in PBS and kept in an ice bath until it was used.
Animals were infected as described by O'Reilly et al. (Antimicrobial Agents and Chemotherapy (1992), 36(12): 2693-97) to generate the bone infection. Female CD rats (age, 57 to 70 days; n=5/group; Charles River, St-Constant, Canada) were anaesthetized by isofluorane before and during the surgery. Following complete induction of anesthesia, the rat was placed ventral side up and hair was shaved from the surgical site. The skin over the leg was cleaned and disinfected (proviodine-ethanol 70%). A longitudinal incision below the knee joint was made in the sagital plane. The incision was made over the bone below the “knee joint” (tibia head or condyle) but not completely extending to the ankle. A high speed drill fitted with a 2 mm bulb bit was used to drill a hole into the medullar cavity of the tibia. Rats were injected intra-tibially with 0.05 ml 5% sodium morrhuate (sclerosing agent) and then with 0.05 ml of S. aureus suspension (ca. 2×10^7 CFU/rat). The hole was sealed by applying a small amount of dry dental cement which immediately absorbs fluids and adheres to the site. The wound was closed using 3 metal skin clips. Moxifloxacin (as a positive control) was injected once at 10 mg/kg intravenously 1 h postinfection in saline, while the Rifabutin derived prodrugs (prepared in 0.9% saline) were injected at the dose indicated in Table 3 as a single intravenous bolus at different time points prior to the infection.
Infected rats were sacrificed by CO2 asphyxiation 24 h postinfection to monitor the bacterial CFU count. Infected tibiae were removed, dissected free of soft tissue, and weighed. The bones were ground, 50 mg of charcoal were added and the powder was resuspended in 5 ml 0.9% NaCl, serially diluted and processed for quantitative cultures. Treatment efficacy was measured in terms of Log viable bacteria (Log CFU per gram of bone). […] The limit of detection is 2 Log CFU. Statistical comparisons of viable bacterial counts for the different treated and untreated groups were performed with the Dunnett's multiple-comparison test. Differences were considered significant when the P value was <0.05 when comparing treated infected animals to the untreated infected ones. The doses used, the amount of time separating the treatment from the time of infection and the treatment outcomes are shown in Table 3.

[6] = single intravenous bolus 1 day prior to infection

| SMILES | Minimum inhibitory concentration, S. aureus ATCC 13709^A [1] | Minimum inhibitory concentration, S. aureus ATCC 29213 (S. aureus ATCC 29213) | Minimum inhibitory concentration, S. aureus ATCC 13709 (S. aureus ATCC 13709 [2]) | Antibacterial activity (in words, from Table 1) (S. aureus ATCC 13709 [2]) | Minimum inhibitory concentration, ATCC 13709 + 50% Human Serum (S. aureus ATCC 13709 [3]; 50% Human Serum) | Minimum inhibitory concentration, ATCC 13709 + 50% Mouse Serum (S. aureus ATCC 13709 [3]; 50% Mouse Serum) | Minimum inhibitory concentration, ATCC 13709 + 50% Rat Serum (S. aureus ATCC 13709 [3]) | Release of parent rifabutin from bone powder-bound prodrug (in words) [4] | % Conversion (prodrug converted to parent drug after binding to bone) ([4]; 50% Heat Inactivated Rat Serum) | % Conversion (prodrug converted to parent drug after binding to bone) ([4]; 50% Rat Serum) | % Conversion (prodrug converted to parent drug after binding to bone) ([4]; PBS) | Serum dependence of antibacterial activity (in words) (S. aureus ATCC 13709 [3]) | Measured bacterial titer, test compound [5, 6] | also measured |
| --- | --- | --- | --- | --- | --- | --- | --- | --- | --- | --- | --- | --- | --- | --- |
| CO[C@H]1/C=C/O[C@@]2(C)Oc3c(C)c(O)c4c(c3C2=O)C2=NC3(CCN(CC(C)C)CC3)N(C(=O)Oc3ccc(NC(=O)CCC(P(=O)(O)O)P(=O)(O)O)cc3)C2=C(NC(=O)/C(C)=C\C=C\[C@H](C)[C@H](O)[C@@H](C)[C@@H](O)[C@@H](C)[C@H](OC(C)=O)[C@@H]1C)C4=O [Compound 28] | >128 µg/mL | 0.5 µg/mL (≈ 0.412 µM) | 0.5 µg/mL (≈ 0.412 µM) | very low MICs whether in the absence or in the presence of serum | 0.25 µg/mL | 2 µg/mL | 0.0625 µg/mL | release significant amounts of the parent rifabutin once bound to bone powder, regardless of the presence of serum | 0.07 ± 0.02% | 0.06 ± 0.01% | 0.06 ± 0.01% | – | – | – |
| CO[C@H]1/C=C/O[C@@]2(C)Oc3c(C)c(O)c4c(c3C2=O)C2=NC3(CCN(CC(C)C)CC3)NC2=C(NC(=O)/C(C)=C\C=C\[C@H](C)[C@H](OC(=O)CN(C)CCOC(=O)CCC(P(=O)(O)O)P(=O)(O)O)[C@@H](C)[C@@H](O)[C@@H](C)[C@H](OC(C)=O)[C@@H]1C)C4=O [Compound 36] | >128 µg/mL | 2 µg/mL (≈ 1.68 µM) | 2 µg/mL (≈ 1.68 µM) | – | 2 µg/mL | 1 µg/mL | 0.0625 µg/mL | release significant amounts of the parent rifabutin once bound to bone powder, regardless of the presence of serum | 0.07% | 0.07% | 0.07% | significant increase in antibacterial activity in serum | – | – |
| CCCC(=O)OCCN(CCCCC(P(=O)(O)O)P(=O)(O)O)CC(=O)O[C@@H]1[C@@H](C)[C@@H](O)[C@@H](C)[C@H](OC(C)=O)[C@H](C)[C@@H](OC)/C=C/O[C@@]2(C)Oc3c(C)c(O)c4c(c3C2=O)C2=NC3(CCN(CC(C)C)CC3)NC2=C(NC(=O)/C(C)=C\C=C\[C@@H]1C)C4=O [Compound 48a] | >128 µg/mL | 2 µg/mL (≈ 1.6 µM) | 2 µg/mL (≈ 1.6 µM) | – | 8 µg/mL | 2 µg/mL | 0.25 µg/mL | – | – | – | – | significant increase in antibacterial activity in serum | 2.53 ± 0.94 Log CFU/g of bone | Measured bacterial titer, test compound ([5]; single intravenous bolus 5 days prior to infection): 2.65 ± 0.85 Log CFU/g of bone; Prophylactic activity in rat bone infection model (in words) ([5]; 20 mg/kg, 1 day or 5 days prior to infection): more potent than rifabutin at 5 days |
| CCC(=O)OCOC(=O)NCC(=O)OCCN(CCCCC(P(=O)(O)O)P(=O)(O)O)CC(=O)O[C@@H]1[C@@H](C)[C@@H](O)[C@@H](C)[C@H](OC(C)=O)[C@H](C)[C@@H](OC)/C=C/O[C@@]2(C)Oc3c(C)c(O)c4c(c3C2=O)C2=NC3(CCN(CC(C)C)CC3)NC2=C(NC(=O)/C(C)=C\C=C\[C@@H]1C)C4=O [Compound 59] | – | – | – | very low MICs whether in the absence or in the presence of serum | – | – | – | – | – | – | – | – | 1.95 ± 0.06 Log CFU/g of bone | MIC ([1]; Staphylococcus aureus, ATCC13709, read-out: Minimum inhibitory concentration, S. aureus ATCC 13709^A): > 128 µg/mL; MIC (S. aureus ATCC 29213; Staphylococcus aureus, ATCC29213, 18 h, read-out: Minimum inhibitory concentration, S. aureus ATCC 29213): 0.125 µg/mL (≈ 0.0916 µM); MIC (S. aureus ATCC 13709 [2]; Staphylococcus aureus, ATCC13709, 18 h, read-out: Minimum inhibitory concentration, S. aureus ATCC 13709): 0.125 µg/mL (≈ 0.0916 µM); MIC (S. aureus ATCC 13709 [3]; read-out: Minimum inhibitory concentration, ATCC 13709 + 50% Human Serum): 0.0625 µg/mL; MIC (S. aureus ATCC 13709 [3]; read-out: Minimum inhibitory concentration, ATCC 13709 + 50% Mouse Serum): 0.0312 µg/mL; MIC (S. aureus ATCC 13709 [3]; read-out: Minimum inhibitory concentration, ATCC 13709 + 50% Rat Serum): 0.008 µg/mL |
| CO[C@H]1/C=C/O[C@@]2(C)Oc3c(C)c(O)c4c(c3C2=O)C2=NC3(CCN(CC(C)C)CC3)NC2=C(NC(=O)/C(C)=C\C=C\[C@H](C)[C@H](OC(=O)CN(C)CC(=O)Nc2ccc(CC(P(=O)(O)O)P(=O)(O)O)cc2)[C@@H](C)[C@@H](O)[C@@H](C)[C@H](OC(C)=O)[C@@H]1C)C4=O [Compound 150] | >128 µg/mL | 64 µg/mL (≈ 51.6 µM) | 64 µg/mL (≈ 51.6 µM) | – | – | 128 µg/mL | 16 µg/mL | – | – | – | – | – | – | Minimum inhibitory concentration, ATCC 13709 + 50% Human Serum (S. aureus ATCC 13709 [3]): >128 µg/mL |
| CO[C@H]1/C=C/O[C@@]2(C)Oc3c(C)c(O)c4c(c3C2=O)C2=NC3(CCN(CC(C)C)CC3)NC2=C(NC(=O)/C(C)=C\C=C\[C@H](C)[C@H](OC(=O)CNC(=O)CCCNC(=O)NC(P(=O)(O)O)P(=O)(O)O)[C@@H](C)[C@@H](O)[C@@H](C)[C@H](OC(C)=O)[C@@H]1C)C4=O.N.N [Compound 155] | >128 µg/mL | 128 µg/mL | 32 µg/mL | near complete loss of activity | 128 µg/mL | – | 8 µg/mL | – | – | – | – | – | – | Minimum inhibitory concentration, ATCC 13709 + 50% Mouse Serum (S. aureus ATCC 13709 [3]): >128 µg/mL |
